The results in this text go back to patent US9695168B2 (Incyte Corporation, priority 2014, dated 2017).

The target of this test is LSD1 (Homo sapiens (Human), UniProt O60341). Briefly: LSD1 Histone Demethylase Biochemical Assay (LANCE LSD1/KDM1A demethylase assay). The conditions noted are these: 1 nM LSD-1 enzyme, 1 hour preincubation at 25° C., 0.4 μM Biotin-labeled Histone H3 peptide substrate. Here is the method:
LSD1 Histone Demethylase Biochemical Assay
LANCE LSD1/KDM1A demethylase assay-10 μL of 1 nM LSD-1 enzyme (ENZO BML-SE544-0050) in the assay buffer (50 mM Tris, pH 7.5, 0.01% Tween-20, 25 mM NaCl, 5 mM DTT) were preincubated for 1 hour at 25° C. with 0.8 μL compound/DMSO dotted in black 384 well polystyrene plates. […] Reactions were stopped by addition of 10 μL 1× LANCE Detection Buffer (PerkinElmer CR97-100) supplemented with 1.5 nM Eu-anti-unmodified H3K4 Antibody (PerkinElmer TRF0404), and 225 nM LANCE Ultra Streptavidin (PerkinElmer TRF102) along with 0.9 mM Tranylcypromine-HCl (Millipore 616431). After stopping the reactions plates were incubated for 30 minutes and read on a PHERAstar FS plate reader (BMG Labtech).

Regarding `Cc1ccc(-c2c(-c3ccc(F)cc3)cc(OC[C@@H]3CCNC3)c3cncn23)cc1` [Example 2, 6-(4-fluorophenyl)-5-(4-methylphenyl)-8-[(3R)-pyrrolidin-3-ylmethoxy]imidazo[1,5-a]pyridine], the IC50 (as a rule, the concentration needed to halve the response being measured) fell in the range of 500 to 1000 nM. `N#Cc1ccc(-c2cc(OC[C@@H]3CCNC3)c3cncn3c2-c2ccc(Cl)cc2)cc1` [Example 6, 4-{5-(4-chlorophenyl)-8-[(3R)-pyrrolidin-3-ylmethoxy]imidazo[1,5-a]pyridin-6-yl}benzonitrile] gave an IC50 of 50 to 100 nM.

In turn, `N#Cc1ccc(-c2cc(OC[C@@H]3CCNC3)c3cncn3c2-c2cnn(C3CCC3)c2)cc1` [Example 7, 4-{5-(1-cyclobutyl-1H-pyrazol-4-yl)-8-[(3R)-pyrrolidin-3-ylmethoxy]imidazo[1,5-a]pyridin-6-yl}benzonitrile] displayed an IC50 of 50 to 100 nM.

Turning to `CC(C)(C)OC(=O)N1CC=C(c2c(-c3ccc(C#N)cc3)cc(OC[C@@H]3CCNC3)c3cncn23)CC1` [Example 10, tert-butyl 4-{6-(4-cyanophenyl)-8-[(3R)-pyrrolidin-3-ylmethoxy]imidazo[1,5-a]pyridin-5-yl}-3,6-dihydropyridine-1(2H)-carboxylate], the IC50 lay within 100 to 500 nM. In turn, `N#Cc1ccc(-c2cc(OC[C@@H]3CCNC3)c3cncn3c2-c2ccc(N3CCOCC3)cc2)cc1` [Example 13, 4-{5-(4-morpholin-4-ylphenyl)-8-[(3R)-pyrrolidin-3-ylmethoxy]imidazo[1,5-a]pyridin-6-yl}benzonitrile] yielded an IC50 of 50 to 100 nM.

As to `N#Cc1ccc(-c2cc(OC[C@@H]3CCNC3)c3cncn3c2-c2ccc(CN3CCOCC3)cc2)cc1` [Example 17, 4-{5-[4-(morpholin-4-ylmethyl)phenyl]-8-[(3R)-pyrrolidin-3-ylmethoxy]imidazo[1,5-a]pyridin-6-yl}benzonitrile], the IC50 fell in the range of 50 to 100 nM. The molecule `CN1CCC[C@@H](COc2nc(-c3ccc(C#N)cc3)c(-c3ccc4c(c3)oc(=O)n4C)n3cncc23)C1` [Example 21, 4-(5-(3-methyl-2-oxo-2,3-dihydro-1,3-benzoxazol-6-yl)-8-{[(3R)-1-methylpiperidin-3-yl]methoxy}imidazo[1,5-a]pyrazin-6-yl)benzonitrile] returned an IC50 of 50 to 100 nM. As for `CN1CCC[C@@H](COc2nc(-c3ccc(C#N)cc3)c(-c3ccc4c(c3)CC(=O)N4C)n3cncc23)C1` [Example 22, 4-(5-(1-methyl-2-oxo-2,3-dihydro-1H-indol-5-yl)-8-{[(3R)-1-methylpiperidin-3-yl]methoxy}imidazo[1,5-a]pyrazin-6-yl)benzonitrile], the figure is 100 to 500 nM; as for `CN1CCC[C@@H](COc2nc(-c3ccc(C#N)cc3)c(-c3ccc4c(c3)CCC(=O)N4C)n3cncc23)C1` [Example 24, 4-(5-(1-methyl-2-oxo-1,2,3,4-tetrahydroquinolin-6-yl)-8-{[(3R)-1-methylpiperidin-3-yl]methoxy}imidazo[1,5-a]pyrazin-6-yl)benzonitrile], 100 to 500 nM. With `CN1CCC[C@@H](COc2nc(-c3ccc(C#N)cc3)c(-c3ccc4c(c3)OCC(=O)N4C)n3cncc23)C1` [Example 25, 4-(5-(4-methyl-3-oxo-3,4-dihydro-2H-1,4-benzoxazin-7-yl)-8-{[(3R)-1-methylpiperidin-3-yl]methoxy}imidazo[1,5-a]pyrazin-6-yl)benzonitrile], the IC50 was 50 to 100 nM.

Turning to `CN1CCC[C@@H](COc2nc(-c3ccc(C#N)cc3)c(-c3ccc4c(c3)n(C)c(=O)n4C)n3cncc23)C1` [Example 26, 4-(5-(1,3-dimethyl-2-oxo-2,3-dihydro-1H-benzimidazol-5-yl)-8-{[(3R)-1-methylpiperidin-3-yl]methoxy}imidazo[1,5-a]pyrazin-6-yl)benzonitrile], the IC50 lay within 100 to 500 nM. As for `CN1CCC[C@@H](COc2nc(-c3ccc(C#N)cc3)c(-c3cnc4c(cnn4C)c3)n3cncc23)C1` [Example 27, 4-[8-{[(3R)-1-methylpiperidin-3-yl]methoxy}-5-(1-methyl-1H-pyrazolo[3,4-b]pyridin-5-yl)imidazo[1,5-a]pyrazin-6-yl]benzonitrile], the figure is 50 to 100 nM; as for `CN1CCC[C@@H](COc2nc(-c3ccc(C#N)cc3)c(-c3ccc4ncccc4c3)n3cncc23)C1` [Example 31, 4-(8-{[(3R)-1-methylpiperidin-3-yl]methoxy}-5-quinolin-6-ylimidazo[1,5-a]pyrazin-6-yl)benzonitrile], 50 to 100 nM.

`Cc1nn(C)c2ccc(-c3c(-c4ccc(C#N)cc4)nc(OC[C@@H]4CCCN(C)C4)c4cncn34)cc12` [Example 32, 4-(5-(1,3-dimethyl-1H-indazol-5-yl)-8-{[(3R)-1-methylpiperidin-3-yl]methoxy}imidazo[1,5-a]pyrazin-6-yl)benzonitrile] gave an IC50 of 50 to 100 nM. `CN1CCC[C@@H](COc2nc(-c3ccc(C#N)cc3)c(-c3ccc4ncsc4c3)n3cncc23)C1` [Example 33, 4-(5-(1,3-benzothiazol-6-yl)-8-{[(3R)-1-methylpiperidin-3-yl]methoxy}imidazo[1,5-a]pyrazin-6-yl)benzonitrile] registered an IC50 of 50 to 100 nM.

For `CC(O)CN1CCC[C@@H](COc2nc(-c3ccc(C#N)cc3)c(-c3cnc4c(cnn4C)c3)n3cncc23)C1` (stereo partly drawn) [Example 39, 4-[8-{[(3R)-1-(2-hydroxypropyl)piperidin-3-yl]methoxy}-5-(1-methyl-1H-pyrazolo[3,4-b]pyridin-5-yl)imidazo[1,5-a]pyrazin-6-yl]benzonitrile], the IC50 lay in the range of 100 to 500 nM.

Take `Cn1ncc2cc(-c3c(-c4ccc(C#N)cc4)nc(OC[C@@H]4CCCN(CC(C)(C)O)C4)c4cncn34)cnc21` [Example 41, 4-[8-{[(3R)-1-(2-hydroxy-2-methylpropyl)piperidin-3-yl]methoxy}-5-(1-methyl-1H-pyrazolo[3,4-b]pyridin-5-yl)imidazo[1,5-a]pyrazin-6-yl]benzonitrile]: the concentration for half-maximal inhibition (IC50) lay in the range of 50 to 100 nM.

In the case of `COC(=O)N(C)c1ccc(-c2c(-c3ccc(C#N)cc3)nc(OC[C@@H]3CCCN(C)C3)c3cncn23)cc1` [Example 46], the IC50 lay within 50 to 100 nM. `COC(=O)N(C)c1ccc(-c2c(-c3ccc(C#N)cc3)nc(OC[C@@H]3CCCN(C)C3)c3cncn23)cn1` [Example 49] had an IC50 of 100 to 500 nM. As for `CN1C(=O)Cc2cc(-c3c(-c4ccc(C#N)cc4)nc(N4CCC(N(C)C)CC4)c4cncn34)ccc21` [Example 52, 4-[8-[4-(dimethylamino)piperidin-1-yl]-5-(1-methyl-2-oxo-2,3-dihydro-1H-indol-5-yl)imidazo[1,5-a]pyrazin-6-yl]benzonitrile], the figure is 50 to 100 nM; as for `CN(C)C1CCN(c2nc(-c3ccc(C#N)cc3)c(-c3cnc4cccnc4c3)n3cncc23)CC1` [Example 55, 4-[8-[4-(dimethylamino)piperidin-1-yl]-5-(1,5-naphthyridin-3-yl)imidazo[1,5-a]pyrazin-6-yl]benzonitrile], 50 to 100 nM. For `CN1CCC[C@@H](COc2cc(-c3ccc(C#N)cc3)c(-c3cnc4cccnc4c3)n3cncc23)C1` [Example 59, (R)-4-(8-((1-methylpiperidin-3-yl)methoxy)-5-(1,5-naphthyridin-3-yl)imidazo[1,5-a]pyridin-6-yl)benzonitrile], the IC50 lay in the range of 100 to 500 nM.

`CN1CCC[C@@H](COc2cc(-c3ccc(C#N)cc3)c(-c3cnc4ccoc4c3)n3cncc23)C1` [Example 60, (R)-4-(5-(furo[3,2-b]pyridin-6-yl)-8-((1-methylpiperidin-3-yl)methoxy)imidazo[1,5-a]pyridin-6-yl)benzonitrile] came in with an IC50 of 50 to 100 nM. Molecule `CN1CCC[C@@H](COc2cc(-c3ccc(C#N)cc3)c(-c3cnc4c(c3)CCCO4)n3cncc23)C1` [Example 61, (R)-4-(5-(3,4-dihydro-2H-pyrano[2,3-b]pyridin-6-yl)-8-((1-methylpiperidin-3-yl)methoxy)imidazo[1,5-a]pyridin-6-yl)benzonitrile] displayed an IC50 of 50 to 100 nM. In the case of `CCN1CCC[C@@H](COc2cc(-c3ccc(C#N)cc3)c(-c3cnc4c(c3)ncn4C)n3cncc23)C1` [Example 66, (R)-4-(8-((1-ethylpiperidin-3-yl)methoxy)-5-(3-methyl-3H-imidazo[4,5-b]pyridin-6-yl)imidazo[1,5-a]pyridin-6-yl)benzonitrile], the IC50 was in the range of 50 to 100 nM.

`CCN1CCC[C@@H](COc2cc(-c3ccc(C#N)cc3)c(-c3cnc4c(c3)CCCO4)n3cncc23)C1` [Example 68, (R)-4-(5-(3,4-dihydro-2H-pyrano[2,3-b]pyridin-6-yl)-8-((1-ethylpiperidin-3-yl)methoxy)imidazo[1,5-a]pyridin-6-yl)benzonitrile] returned an IC50 of 50 to 100 nM.

Turning to `COc1ncc(-c2c(-c3ccc(C#N)cc3)cc(OC[C@@H]3CCCN(C)C3)c3cncn23)cc1N` [Example 69, (R)-4-(5-(5-amino-6-methoxypyridin-3-yl)-8-((1-methylpiperidin-3-yl)methoxy)imidazo[1,5-a]pyridin-6-yl)benzonitrile], the IC50 fell in the range of 50 to 100 nM.

`Cc1ncc(-c2c(-c3ccc(C#N)cc3)nc(OC[C@@H]3CCCN(C)C3)c3cncn23)cc1F` [Example 88, 4-(5-(5-fluoro-6-methylpyridin-3-yl)-8-{[(3R)-1-methylpiperidin-3-yl]methoxy}imidazo[1,5-a]pyrazin-6-yl)benzonitrile] returned an IC50 of 50 to 100 nM. On to `CN(C)C1CCN(c2nc(-c3ccc(C#N)cc3)c(-c3cnc4ccoc4c3)n3cncc23)CC1` [Example 104, 4-(8-(4-(dimethylamino)piperidin-1-yl)-5-(furo[3,2-b]pyridin-6-yl)imidazo[1,5-a]pyrazin-6-yl)benzonitrile], for which the IC50 was 50 to 100 nM.
